From US20130052145A1, “ADHESIVE SLOW-RELEASE FORMULATIONS FOR THE LOCAL ADMINISTRATION OF CURCUMIN” (Orphanidis Pharma Research GmbH, priority 2010, published 2013)

What was measured:
[1] = Solubility studies with curcumin in organic solvents and solvent + water mixtures; type: physicochemical
Description: For oral solutions, curcumin must be dissolved. The solvents listed in Table 1 have been tested for this purpose. The maximum concentration of curcumin that could be dissolved is listed for each solvent. If curcumin was soluble, water was added to the solvents and the solubility in this mixture was also determined: […]

[2] = Storage stability of liquid curcumin formulations under accelerated conditions (HPLC); type: physicochemical

COc1cc(/C=C/C(=O)CC(=O)/C=C/c2ccc(O)c(OC)c2)ccc1O [curcumin]
% Solubility (w/v) ([1]; Collidone 12 + water 4 + 6): 0 % (w/v) | % Solubility (w/v) ([1]; Collidone12 + water 5 + 5): 0 % (w/v) | % Solubility (w/v) ([1]; Collidone 17 + water 4 + 6): 0 % (w/v) | % Solubility (w/v) ([1]; Collidone 17 + water 5 + 5): 0 % (w/v) | % Solubility (w/v) ([1]; N-Ethyl-2-pyrrolidone + water 6 + 4): 4 % (w/v) | % Solubility (w/v) ([1]; N-Ethyl-2-pyrrolidone + water 7 + 3): 5 % (w/v) | % Solubility (w/v) ([1]; N-Methyl-2-pyrrolidone + water 6 + 4): 4 % (w/v) | % Solubility (w/v) ([1]; N-Methyl-2-pyrrolidone + water 7 + 3): 4 % (w/v) | % Solubility (w/v) ([1]; PEG 300 + water 8 + 2): 2.5 % (w/v) | % Solubility (w/v) ([1]; PEG 300 + water 9 + 1): 2.5 % (w/v) | % Solubility (w/v) ([1]; PVP + water 3 + 7): 0 % (w/v) | % Solubility (w/v) ([1]; Pluronic F-68 + water 3 + 7): 0 % (w/v) | % Solubility (w/v) ([1]; Pyrrolidone + water 1 + 9): 1 % (w/v) | % Solubility (w/v) ([1]; Pyrrolidone + water 5 + 5): 2.5 % (w/v) | % Solubility (w/v) ([1]; Pyrrolidone + water 6 + 4): 3 % (w/v) | % Solubility (w/v) ([1]; Pyrrolidone + water 7 + 3): 5 % (w/v) | % Solubility (w/v) ([1]; Pyrrolidone + water 9 + 1): 5 % (w/v) | % Solubility (w/v) ([1]; solvent Capmul): 0 % (w/v) | % Solubility (w/v) ([1]; solvent Cremophor): 0 % (w/v) | % Solubility (w/v) ([1]; solvent Dimethylacetamide): 4 % (w/v) | % Solubility (w/v) ([1]; solvent Glycerol): 0 % (w/v) | % Solubility (w/v) ([1]; solvent Hydrogenated peanut oil): 0 % (w/v) | % Solubility (w/v) ([1]; solvent Labrafil): 3 % (w/v) | % Solubility (w/v) ([1]; solvent Labrasol): 0 % (w/v) | % Solubility (w/v) ([1]; solvent N-Ethyl-2-pyrrolidone): 30 % (w/v) | % Solubility (w/v) ([1]; solvent N-Methyl-2-pyrrolidone): 30 % (w/v) | % Solubility (w/v) ([1]; solvent PEG 300): 2.5 % (w/v) | % Solubility (w/v) ([1]; solvent PVA): 0 % (w/v) | % Solubility (w/v) ([1]; solvent Pluronic L44): 3 % (w/v) | % Solubility (w/v) ([1]; solvent Propylene glycol): 0 % (w/v) | % Solubility (w/v) ([1]; solvent Pyrrolidone): 20 % (w/v) | % Solubility (w/v) ([1]; solvent Refined corn oil): 0 % (w/v) | Stability in storage of curcumin in PEG formulations [2]: comparatively high stability in storage
